Assays:
GST-Flk1 = GST-Flk1 (UniProt P35918); experiment: GST-FLK-1 bioassay (bio flkGST); type: biochemical
Procedure, shortened: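 ELISA with Sf9-expressed GST-Flk1cd (5 ng/well) phosphorylating plate-coated poly(Glu,Tyr) 4:1 in Hepes pH 7.5 with MnCl2 and ATP (2 μM as 4× stock), 15 min at room temperature; EDTA stop. Phosphotyrosine detected with PY99-HRP and ABTS at 410 nm.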

EGF Receptor = target: T1, EGF Receptor (Homo sapiens, UniProt P00533); experiment: bio EGF (EGF Receptor ELISA); type: biochemical
T1 construct: expressed in transfected cells; host or cells: NIH 3T3/C7 (mouse fibroblasts engineered to express human EGF-R)
T1 sequence (P00533 25-1210): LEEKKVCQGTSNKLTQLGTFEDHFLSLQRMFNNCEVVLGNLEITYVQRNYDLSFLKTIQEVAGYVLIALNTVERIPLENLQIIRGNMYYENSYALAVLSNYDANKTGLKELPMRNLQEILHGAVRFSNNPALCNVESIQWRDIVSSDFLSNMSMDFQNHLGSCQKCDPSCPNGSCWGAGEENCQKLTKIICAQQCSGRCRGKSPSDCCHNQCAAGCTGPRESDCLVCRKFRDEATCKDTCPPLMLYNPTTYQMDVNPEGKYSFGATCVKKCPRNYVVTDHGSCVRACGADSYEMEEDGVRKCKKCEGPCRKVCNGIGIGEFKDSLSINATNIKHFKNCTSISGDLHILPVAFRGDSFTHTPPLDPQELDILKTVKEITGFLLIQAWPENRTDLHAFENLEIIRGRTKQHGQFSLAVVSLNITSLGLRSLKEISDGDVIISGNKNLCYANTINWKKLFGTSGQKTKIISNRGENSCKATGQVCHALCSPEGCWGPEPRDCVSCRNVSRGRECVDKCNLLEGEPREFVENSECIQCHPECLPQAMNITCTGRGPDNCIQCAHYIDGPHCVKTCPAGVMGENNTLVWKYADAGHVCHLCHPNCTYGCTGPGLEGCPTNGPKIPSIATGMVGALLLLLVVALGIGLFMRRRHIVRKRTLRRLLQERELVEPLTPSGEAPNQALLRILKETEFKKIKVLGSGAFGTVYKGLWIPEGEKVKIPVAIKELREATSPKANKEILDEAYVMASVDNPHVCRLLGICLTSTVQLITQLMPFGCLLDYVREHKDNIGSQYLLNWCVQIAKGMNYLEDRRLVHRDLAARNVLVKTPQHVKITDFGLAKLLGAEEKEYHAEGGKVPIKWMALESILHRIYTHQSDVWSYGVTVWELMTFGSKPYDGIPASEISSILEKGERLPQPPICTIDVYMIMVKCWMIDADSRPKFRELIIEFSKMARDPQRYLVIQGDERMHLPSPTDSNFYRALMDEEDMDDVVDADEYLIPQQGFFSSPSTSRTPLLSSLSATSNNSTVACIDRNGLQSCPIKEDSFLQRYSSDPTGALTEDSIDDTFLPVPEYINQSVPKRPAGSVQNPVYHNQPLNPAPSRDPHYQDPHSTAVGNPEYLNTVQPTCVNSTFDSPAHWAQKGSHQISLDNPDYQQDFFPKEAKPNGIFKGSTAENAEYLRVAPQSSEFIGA
Procedure, shortened: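 Cells engineered to express human EGFR, seeded in 0.5% serum for ~40 h, then exposed to drug (stock diluted to 1:200 final, 1% DMSO) before 5 min EGF stimulation at 25 nM final. Lysates captured on anti-EGFR-coated plates, and phosphotyrosine detected by anti-pTyr/HRP ELISA at 410 nm. Percent inhibition calculated relative to control wells after negative-control subtraction.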

Row | Compound | IC50 (GST-Flk1) | IC50 (EGF Receptor)
1 | O=C1Nc2cc(-c3ccc(F)cc3)ccc2C1=Cc1cc2cc(OCCN3CCOCC3)ccc2[nH]1 [IN-038, 6-(4-fluoro-phenyl)-3-[5-(2-morpholin-4-yl-ethoxy)-1H-indol-2-ylmethylene]-1,3-dihydro-indol-2-one] | > 10 µM | > 20 µM
2 | CCN(CC)CCCc1ccc2[nH]c(C=C3C(=O)Nc4ccc(Br)cc43)cc2c1 [IN-002, 5-bromo-3-[5-(3-diethylamino-propyl)-1H-indol-2-ylmethylene]-1,3-dihydro-indol-2-one] | 0.03 µM | 2.87 µM
3 | NS(=O)(=O)c1ccc2c(c1)C(=Cc1cc3cc(OCCN4CCCC4)ccc3[nH]1)C(=O)N2 [IN-039, 2-oxo-3-[5-(2-pyrrolidin-1-yl-ethoxy)-1H-indol-2-ylmethylene]-2,3-dihydro-1H-indole-5-sulfonic acid amide] | 0.17 µM | > 100 µM
4 | Cc1[nH]c2ccccc2c1C=C1C(=O)Nc2ccc(S(N)(=O)=O)cc21 [IN-066, 3-(2-methyl-1H-indol-3-ylmethylene)-2-oxo-2,3-dihydro-1H-indole-5-sulfonic acid amide] | > 20 µM | > 100 µM
5 | CNS(=O)(=O)c1ccc2c(c1)C(=Cc1cc3cc(OCCN4CCOCC4)ccc3[nH]1)C(=O)N2 [IN-053, 3-[5-(2-morpholin-4-yl-ethoxy)-1H-indol-2-ylmethylene]-2-oxo-2,3-dihydro-1H-indole-5-sulfonic acid methylamide] | 1.21 µM | 15.2 µM
6 | O=C1Nc2ccc(S(=O)(=O)N3CCCc4ccccc43)cc2C1=Cc1cc2cc(OCCN3CCCC3)ccc2[nH]1 [IN-050, 5-(3,4-dihydro-2H-quinoline-1-sulfonyl)-3-[5-(2-pyrrolidin-1-yl-ethoxy)-1H-indol-2-ylmethylene]-1,3-dihydro-indol-2-one] | 0.71 µM | 2.4 µM
7 | O=C1Nc2ccc(-c3ccccc3)cc2C1=Cc1cc2cc(OCCN3CCOCC3)ccc2[nH]1 [IN-032, 3-[5-(2-morpholin-4-yl-ethoxy)-1H-indol-2-ylmethylene]-5-phenyl-1,3-dihydro-indol-2-one] | 1.47 µM | > 20 µM
8 | O=C1Nc2ccc(S(=O)(=O)N3CCc4ccccc43)cc2C1=Cc1cc2cc(OCCN3CCCC3)ccc2[nH]1 [IN-046, 5-(2,3-dihydro-indole-1-sulfonyl)-3-[5-(2-pyrrolidin-1-yl-ethoxy)-1H-indol-2-ylmethylene]-1,3-dihydro-indol-2-one] | 1.05 µM | 1.23 µM
9 | O=C1Nc2cc(-c3ccccc3)ccc2C1=Cc1cc2cc(OCCN3CCOCC3)ccc2[nH]1 [IN-009, 3-[5-(2-morpholin-4-yl-ethoxy)-1H-indol-2-ylmethylene]-6-phenyl-1,3-dihydro-indol-2-one] | 9.42 µM | > 100 µM
10 | CCN(CC)CCOc1ccc2[nH]c(C=C3C(=O)Nc4ccccc43)cc2c1 [IN-016, 3-[5-(2-diethylamino-ethoxy)-1H-indol-2-ylmethylene]-1,3-dihydro-indol-2-one] | 0.05 µM | > 10 µM
11 | O=C1Nc2ccccc2C1=Cc1cc2cc(OCCN3CCCC3)ccc2[nH]1 [IN-013, 3-[5-(2-pyrrolidin-1-yl-ethoxy)-1H-indol-2-ylmethylene]-1,3-dihydro-indol-2-one] | 0.1 µM | 41.3 µM
12 | O=C1Nc2cc(-c3cccnc3)ccc2C1=Cc1cc2cc(OCCN3CCOCC3)ccc2[nH]1 [IN-034, 3-[5-(2-morpholin-4-yl-ethoxy)-1H-indol-2-ylmethylene]-6-pyridin-3-yl-1,3-dihydro-indol-2-one] | 14 µM | > 20 µM
13 | CNS(=O)(=O)c1ccc2c(c1)C(=Cc1c(C)[nH]c3ccccc13)C(=O)N2 [IN-069, 3-(2-methyl-1H-indol-3-ylmethylene)-2-oxo-2,3-dihydro-1H-indole-5-sulfonic acid methylamide] | 12.8 µM | > 100 µM
14 | O=C1Nc2ccccc2C1=Cc1cc2cc(OCCN3CCOCC3)ccc2[nH]1 [IN-007, 3-[5-(2-morpholin-4-yl-ethoxy)-1H-indol-2-ylmethylene]-1,3-dihydro-indol-2-one] | 0.4 µM | 37.4 µM
15 | CN(C)S(=O)(=O)c1ccc2c(c1)C(=Cc1cc3cc(OCCN4CCOCC4)ccc3[nH]1)C(=O)N2 [IN-054, 3-[5-(2-morpholin-4-yl-ethoxy)-1H-indol-2-ylmethylene]-2-oxo-2,3-dihydro-1H-indole-5-sulfonic acid dimethylamide] | 4.28 µM | > 20 µM
16 | CCN(CC)CCOc1ccc2[nH]c(C=C3C(=O)Nc4cc(-c5ccccc5)ccc43)cc2c1 [IN-018, 3-[5-(2-diethylamino-ethoxy)-1H-indol-2-ylmethylene]-6-phenyl-1,3-dihydro-indol-2-one] | 5.41 µM | > 100 µM
17 | O=C1Nc2ccc(S(=O)(=O)N3CCCc4ccccc43)cc2C1=Cc1cc2cc(OCCN3CCOCC3)ccc2[nH]1 [IN-062, 5-(3,4-dihydro-2H-quinoline-1-sulfonyl)-3-[5-(2-morpholin-4-yl-ethoxy)-1H-indol-2-ylmethylene]-1,3-dihydro-indol-2-one] | 15.4 µM | > 20 µM
18 | CC(C)NS(=O)(=O)c1ccc2c(c1)C(=Cc1cc3cc(OCCN4CCOCC4)ccc3[nH]1)C(=O)N2 [IN-055, 3-[5-(2-morpholin-4-yl-ethoxy)-1H-indol-2-ylmethylene]-2-oxo-2,3-dihydro-1H-indole-5-sulfonic acid isopropylamide] | 1.5 µM | 3.5 µM
19 | CCN(CC)CCCc1ccc2[nH]c(C=C3C(=O)Nc4ccc(-c5ccccc5)cc43)cc2c1 [IN-004, 3-[5-(3-diethylamino-propyl)-1H-indol-2-ylmethylene]-5-phenyl-1,3-dihydro-indol-2-one] | 0.47 µM | 2.57 µM

From patent publication US6706709B2, “Indolinone derivatives as protein kinase/phosphatase inhibitors” (Sugen, Inc., priority 2000, dated 2004)
